Experimental data taken from patent publication US9540389B2, “Antimicrobial potentiators” (priority 2013, dated 2017).

How the values were obtained:
P. aeruginosa ATCC 27853 = assay: MIC assay (microbroth dilution) ± 25 μM EPI; type: cell-based, Pseudomonas aeruginosa
Excerpt: (§1) • Strains and Reagents. The following strains were obtained from the Keio collection (Baba, et al.: Construction of Escherichia coli K-12 in-frame, single-gene knockout mutants: the Keio collection. In Mol Syst Biol, vol. 2, pp. 2006 0008, (2006)): JW0451 (ΔacrB::kan), JW5503 (ΔtolC::kan), JW3234 (ΔacrF::kan), JW2661 (ΔemrB::kan), JW0863 (ΔmacB::kan). The deletion mutations in each of these strains were transferred to AB1157 using P1 phage transduction (see Table 1). The construction of the E. coli cell-based reporter strain (SOS-XXX) that was used for high throughput screening is described in detail in the supplementary information. […] Irgasan was a generous gift from Ciba Speciality Chemicals, Inc. (High Point, N.C.). Hoechst 33342 (H33342) was purchased from Molecular Probes (Eugene, Oreg.). […] Luria Broth (Miller) and agar were purchased as prepared dehydrated media from Becton Dickenson (Franklin Lakes, N.J.). The compound libraries used in high-throughput screens were purchased from Chembridge (San Diego, Calif.), ChemDiv (San Diego, Calif.), and TimTec (Newark, Del.). MBX2319 was synthesized by Microbiotix, Inc. • Antibacterial Activity Assays. The minimal inhibitory concentration (MIC) of antibacterial agents and biocides were determined using the microbroth dilution method essentially as described in the CLSI protocol M7-A7 (CLSI: Method for dilution antimicrobial susceptibility testing for bacteria that grow aerobically; Approved standard-document M7-A7. In Clinical and Laboratory Standards Institute document M7-A7, Clinical and Laboratory Standards Institute, Wayne, Pa., (2006)), with the following exceptions. LB media was used instead of MHB. […] The final concentration of DMSO in each assay was 2%. […] MIC assays were performed in triplicate and the geometric mean was calculated. Checkerboard MIC assays using an EPI and an antibacterial agent were performed essentially as described (Pillai, et al.: Antimicrobial Combinations. In Antibiotics in Laboratory Medicine, ed. by V. Lorian, pp. 365-440, Lippincott Williams & Wilkins, Philadelphia, Pa., (2005)), with the same modifications used for the MIC assays described above. • Time-Kill Assays. Killing curve assays were performed essentially as described (Pillai, et al.: Antimicrobial Combinations. In Antibiotics in Laboratory Medicine, ed. by V. Lorian, pp. 365-440, Lippincott Williams & Wilkins, Philadelphia, Pa., (2005)). Exponential bacterial cultures grown in LB were diluted to a cell density of ˜1×10^7 in LB followed by addition of CIP and/or an EPI. Viability was monitored over 2-4 hours by making serial dilutions in saline and spotting 5 μl of each dilution onto the surface of an LB agar plate in triplicate. Colonies were counted after the plates were incubated at 37° C. for 16-18 hr, colony forming units (CFU) per ml were calculated, and the average and standard deviation for the three replicates was determined. For treatments that decreased CFU/ml below the limit of detection for the spot plating method, the 100 μl samples were diluted into 5 ml LB top agar, were poured onto LB agar plates, and incubated for 18 hr at 37° C. To calculate the fraction of the control for each sample, the average CFU/ml values for treated samples were divided by those from the same sample at 0 h (time=0). Each experiment was repeated at least three times, and a representative experiment is shown. • H33342 Accumulation Assay. The rate of accumulation of the fluorescent dye Hoechst 33342 (H33342), which is a substrate of a wide variety of bacterial efflux pumps (van den Berg van Saparoea, et al., Biochemistry, vol. 44, pp. 16931-16938, (2005)), can be used to estimate the activity of the major efflux pumps in E. coli and many other bacterial species. The H33342 accumulation assay was used to evaluate the effect of EPIs on the activity of the AcrAB-TolC efflux pump in several bacterial species essentially as described (Coldham, et al., J Antimicrob Chemother, vol. 65, pp. 1655-1663, (2010)). […]

[1] = system: Escherichia coli 287 (AB1157, CIPR, overexpresses efflux); assay: microbe, parasite or virus in culture; type: cell-based
Excerpt: as §1

[2] = system: Escherichia coli 285 (AB1157, CIPR, overexpresses efflux); assay: microbe, parasite or virus in culture; type: cell-based
Excerpt: as §1

[3] = system: Shigella flexneri ATCC 12022; assay: MIC assay (microbroth dilution) ± 25 μM EPI; type: cell-based
Excerpt: as §1

[4] = system: Klebsiella pneumoniae ATCC 700603; assay: MIC assay (microbroth dilution) ± 25 μM EPI; type: cell-based
Excerpt: as §1

[5] = system: Escherichia coli ATCC 25922; assay: MIC assay (microbroth dilution) ± 25 μM EPI; type: cell-based
Excerpt: as §1

[6] = system: Salmonella enterica ATCC 14028; assay: MIC assay (microbroth dilution) ± 25 μM EPI; type: cell-based
Excerpt: as §1

Escherichia coli 331 = assay: MIC assay (microbroth dilution) ± 25 μM EPI; type: cell-based; details: E. coli 331
Excerpt: as §1

Escherichia coli AB1157 = assay: MIC assay (microbroth dilution) ± 25 μM EPI; type: cell-based
Excerpt: as §1

[7] = system: Enterobacter aerogenes ATCC 13048; assay: MIC assay (microbroth dilution) ± 25 μM EPI; type: cell-based
Excerpt: as §1

[8] = Escherichia coli, read-out: MIC (μg/ml) with MBX2319 at concn (μM) of: 0

CO/N=C(\C(=O)N[C@@H]1C(=O)N2C(C(=O)O)=C(COC(C)=O)CS[C@H]12)c1csc(N)n1 [CEF, cefotaxime]
MIC (μg/ml) ± EPI: MBX2319 (P. aeruginosa ATCC 27853; + 25 μM MBX2319): 8 µg/mL
MIC (μg/ml) ± EPI: PAβN (P. aeruginosa ATCC 27853; + 25 μM PAβN): 19 µg/mL
MIC (P. aeruginosa ATCC 27853; Pseudomonas aeruginosa, ATCC27853, no EPI, read-out: MIC (μg/ml) ± EPI: None): 53.8 µg/mL
MIC (μg/ml) with MBX2319 at concn (μM) of: 6.25 ([1]; 287, MBX2319 6.25 μM): 0.063 µg/mL
MIC (μg/ml) with MBX2319 at concn (μM) of: 25 ([1]; 287, MBX2319 25 μM): 0.063 µg/mL
MIC (μg/ml) with MBX2319 at concn (μM) of: 50 ([1]; 287, MBX2319 50 μM): 0.063 µg/mL
MIC [1, 8]: 0.25 µg/mL
MIC (μg/ml) with MBX2319 at concn (μM) of: 3.13 ([2]; 285, MBX2319 3.13 μM): 0.063 µg/mL
MIC (μg/ml) with MBX2319 at concn (μM) of: 6.25 ([2]; 285, MBX2319 6.25 μM): 0.063 µg/mL
MIC (μg/ml) with MBX2319 at concn (μM) of: 25 ([2]; 285, MBX2319 25 μM): 0.031 µg/mL
MIC (μg/ml) with MBX2319 at concn (μM) of: 50 ([2]; 285, MBX2319 50 μM): 0.031 µg/mL
MIC [2, 8]: 0.25 µg/mL
MIC (μg/ml) ± EPI: MBX2319 ([3]; Shigella flexneri ATCC 12022, + 25 μM MBX2319): 0.031 µg/mL
MIC (μg/ml) ± EPI: PAβN ([3]; Shigella flexneri ATCC 12022, + 25 μM PAβN): 0.063 µg/mL
MIC ([3]; Shigella flexneri, ATCC12022, read-out: MIC (μg/ml) ± EPI: None): 0.063 µg/mL
MIC (μg/ml) ± EPI: MBX2319 ([4]; + 25 μM MBX2319): 8 µg/mL
MIC (μg/ml) ± EPI: PAβN ([4]; + 25 μM PAβN): 8 µg/mL
MIC ([4]; ATCC700603, no EPI, read-out: MIC (μg/ml) ± EPI: None): 8 µg/mL
MIC (μg/ml) ± EPI: MBX2319 ([5]; E. coli ATCC 25922, + 25 μM MBX2319): 0.063 µg/mL
MIC (μg/ml) ± EPI: PAβN ([5]; E. coli ATCC 25922, + 25 μM PAβN): 0.25 µg/mL
MIC ([5]; Escherichia coli, ATCC25922, read-out: MIC (μg/ml) ± EPI: None): 0.074 µg/mL
MIC (μg/ml) ± EPI: MBX2319 ([6]; + 25 μM MBX2319): 0.063 µg/mL
MIC (μg/ml) ± EPI: PAβN ([6]; + 25 μM PAβN): 0.297 µg/mL
MIC ([6]; ATCC14028, no EPI, read-out: MIC (μg/ml) ± EPI: None): 0.21 µg/mL
MIC (μg/ml) ± EPI: MBX2319 (Escherichia coli 331; + 25 μM MBX2319): 0.031 µg/mL
MIC (μg/ml) ± EPI: PAβN (Escherichia coli 331; + 25 μM PAβN): 0.353 µg/mL
MICs (μg/ml) ± EPIs: MBX2319 (Escherichia coli AB1157; E. coli AB1157 (WT), + 25 μM MBX2319, geometric mean): 0.022 µg/mL
MICs (μg/ml) ± EPIs: PAβN (Escherichia coli AB1157; E. coli AB1157 (WT), + 25 μM PAβN, geometric mean): 0.25 µg/mL
MIC (Escherichia coli AB1157; Escherichia coli, AB1157, read-out: MICs (μg/ml) ± EPIs: None): 0.1 µg/mL
MIC (μg/ml) ± EPI: MBX2319 ([7]; + 25 μM MBX2319): 2.4 µg/mL
MIC (μg/ml) ± EPI: PAβN ([7]; + 25 μM PAβN): 6.7 µg/mL
MIC ([7]; Klebsiella aerogenes, ATCC13048, no EPI, read-out: MIC (μg/ml) ± EPI: None): 2 µg/mL
